Where two headings read alike, the source gives them in different places.
What was measured:
Format in all cases: binding
AKT1 E17K = biological target: T1, AKT1 E17K (Homo sapiens, UniProt P31749, E17K); assay: Live cell AKT1 E17K target engagement by NanoBRET competitive probe displacement in HEK293 cells; conditions: 2 h at 37° C.
T1 construct: expressed in transfected cells; host or cells: HEK293
Protocol: Determining live cell AKT1 E17K, AKT1 WT, and AKT2 target engagement by NanoBRET competitive probe displacement. Live cell target engagement assays were performed as described (Vasta, J. D. et al. Cell Chem Biol 2018, 25(11), 206-214). Briefly, HEK293 cells were transfected with plasmids encoding kinase-NanoLuciferase fusion proteins overnight. Cells were then treated with serial dilutions of compound and an ˜EC50 concentration of fluorescently-tagged ATP-competitive tracer (Promega). After incubation for 2 h at 37° C., luciferase substrate and extracellular luciferase inhibitor were added to all wells, and luminescent intensity at 460 nm and 600 nm were measured on a multimode plate-reader. The ratio of E600/E460 was calculated to give the tracer engagement signal (BRET). IC50 values were calculated by fitting BRET values to a log(inhibitor) vs. response Hill equation.

AKT1 WT = biological target: T2, AKT1 WT (Homo sapiens, UniProt P31749); assay: Live cell AKT1 WT target engagement by NanoBRET competitive probe displacement in HEK293 cells; conditions: 2 h at 37° C., read-out: AKT1 WT IC50
T2 construct: expressed in transfected cells; host or cells: HEK293

AKT2 = biological target: T3, AKT2 (Homo sapiens, UniProt P31751); assay: Live cell AKT2 target engagement by NanoBRET competitive probe displacement in HEK293 cells; conditions: 2 h at 37° C., read-out: AKT2 IC50
T3 construct: expressed in transfected cells; host or cells: HEK293

[1] = NanoBRET live cell target engagement, HEK293 cells
[2] = NanoBRET competitive probe displacement, live HEK293 cells

T2 sequence (P31749 whole entry): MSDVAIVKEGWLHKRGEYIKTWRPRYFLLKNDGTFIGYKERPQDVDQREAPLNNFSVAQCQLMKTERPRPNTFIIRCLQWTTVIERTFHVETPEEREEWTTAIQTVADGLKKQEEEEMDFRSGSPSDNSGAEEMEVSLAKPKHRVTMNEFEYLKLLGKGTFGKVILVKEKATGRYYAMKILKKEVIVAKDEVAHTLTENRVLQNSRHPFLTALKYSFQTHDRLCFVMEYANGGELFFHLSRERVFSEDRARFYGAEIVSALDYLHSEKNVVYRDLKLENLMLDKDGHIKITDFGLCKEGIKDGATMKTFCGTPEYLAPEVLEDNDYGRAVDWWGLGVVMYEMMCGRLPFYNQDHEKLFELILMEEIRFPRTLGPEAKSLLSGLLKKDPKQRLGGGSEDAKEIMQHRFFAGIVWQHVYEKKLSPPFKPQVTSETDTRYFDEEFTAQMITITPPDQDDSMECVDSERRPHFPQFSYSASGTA
T1 sequence (P31749 whole entry E17K): as the sequence (P31749 whole entry) above, with E17K counted along it
T3 sequence (P31751 whole entry): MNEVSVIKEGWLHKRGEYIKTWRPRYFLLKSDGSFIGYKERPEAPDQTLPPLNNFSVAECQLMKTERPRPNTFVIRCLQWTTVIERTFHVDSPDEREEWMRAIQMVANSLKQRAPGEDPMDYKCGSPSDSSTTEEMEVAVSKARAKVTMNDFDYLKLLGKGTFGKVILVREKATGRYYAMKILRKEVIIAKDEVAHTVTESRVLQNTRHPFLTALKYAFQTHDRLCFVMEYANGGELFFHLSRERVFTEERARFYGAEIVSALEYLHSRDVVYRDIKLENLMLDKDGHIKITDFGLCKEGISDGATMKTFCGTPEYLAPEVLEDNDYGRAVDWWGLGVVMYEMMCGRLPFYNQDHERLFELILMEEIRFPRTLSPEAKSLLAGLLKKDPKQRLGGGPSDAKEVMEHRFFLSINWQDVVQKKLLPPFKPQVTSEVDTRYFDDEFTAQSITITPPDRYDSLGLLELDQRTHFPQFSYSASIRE

SMILES	IC50 (AKT1 E17K; [1]) [µM]	IC50 (AKT1 WT; [1]) [µM]	IC50 (AKT2; [1]) [µM]	IC50 (AKT1 E17K; [2]) [µM]	IC50 (AKT1 WT; [2]) [µM]	IC50 (AKT2; [2]) [µM]
C#CC1(OCC(=O)N[C@H]2CCc3cc(-n4c(-c5cccnc5N)nc5ccc(-n6cccn6)nc54)ccc32)COC1 [Compound 9, N—{(S)-5-[2-(2-amino-3-pyridyl)-5-(1-pyrazolyl)-3H-1,3,4-triazainden-3-yl]-1-indanyl}(3-ethynyl-3-oxetanyloxy)acetamide]	> 1	> 1	8.89			
CN1C(=O)CCC1CC(=O)N[C@H]1CCc2cc(-n3c(-c4cccnc4N)nc4ccc(-n5cccn5)nc43)ccc21 (mixture of isomers) [Compound 11, N—{(S)-5-[2-(2-amino-3-pyridyl)-5-(1-pyrazolyl)-3H-1,3,4-triazainden-3-yl]-1-indanyl}(1-methyl-5-oxo-2-pyrrolidinyl)acetamide]	> 1	> 1	> 10			
CC(=O)N[C@H]1CCc2cc(-n3c(-c4cccnc4N)nc4ccc(-n5cccn5)nc43)ccc21 [Compound 1, (S)—N-(5-(2-(2-aminopyridin-3-yl)-5-(1H-pyrazol-1-yl)-3H-imidazo[4,5-b]pyridin-3-yl)-2,3-dihydro-1H-inden-1-yl)acetamide]	> 1	> 0.737	4.31			
Cc1cnc(-c2ccc3nc(-c4cccnc4N)n(-c4ccc5c(c4)CC[C@@H]5n4ccnn4)c3n2)s1 [Compound 303]		0.0456	1.72			
Cc1ncc(F)cc1C(=O)N[C@H]1CCc2cc(-n3c(-c4cccnc4N)nc4ccc(-n5cccn5)nc43)ccc21 [Compound 159]		0.00465	0.0221			
CC(=O)Nc1c(F)cc(C(=O)N[C@H]2CCc3cc(-n4c(-c5cccnc5N)nc5ccc(-n6cccn6)nc54)ccc32)cc1F [Compound 294]		0.00527	0.0291			
Cc1ccc(C(=O)N[C@H]2CCc3cc(-n4c(-c5cccnc5N)nc5ccc(-c6nc(C)cs6)nc54)ccc32)cn1 [Compound 300]		0.00332	0.00847			
Nc1ncccc1-c1nc2ccc(-n3cccn3)nc2n1-c1ccc2c(c1)CC[C@@H]2n1cnnc1-c1ccccc1 [Compound 178]		0.0882	3.52			
Cc1ncc(C(=O)N[C@H]2CCc3cc(-n4c(-c5cccnc5N)nc5ccc(-n6cccn6)nc54)ccc32)c(C(F)F)n1 [Compound 151, (S)—N-(5-(2-(2-aminopyridin-3-yl)-5-(1H-pyrazol-1-yl)-3H-imidazo[4,5-b]pyridin-3-yl)-2,3-dihydro-1H-inden-1-yl)-4-(difluoromethyl)-2-methylpyrimidine-5-carboxamide]		0.0228	0.366			
Nc1ncccc1-c1nc2ccc(-n3cccn3)nc2n1-c1ccc2c(c1)CC[C@@H]2NC(=O)c1cccnc1C(F)F [Compound 79]		0.0195	0.54			
Cn1nc(C(=O)N[C@H]2CCc3cc(-n4c(-c5cccnc5N)nc5ccc(-n6cccn6)nc54)ccc32)cc1C(F)F [Compound 266]		0.0183	0.468			
Cn1ccc(-c2cn([C@H]3CCc4cc(-n5c(-c6cccnc6N)nc6ccc(-n7cccn7)nc65)ccc43)nn2)n1 [Compound 197]		0.0147	0.0953			
Nc1ncccc1-c1nc2ccc(-n3cccn3)nc2n1-c1ccc2c(c1)CC[C@@H]2NCc1cccnc1 [Compound 141]		0.0526	0.734			
CC#Cc1ncccc1C(=O)N[C@H]1CCc2cc(-n3c(-c4cccnc4N)nc4ccc(-n5cccn5)nc43)ccc21 [Compound 211]		0.0321	0.824			
CNS(=O)(=O)c1ccc(C(=O)N[C@H]2CCc3cc(-n4c(-c5cccnc5N)nc5ccc(-n6cccn6)nc54)ccc32)cc1 [Compound 308]		0.0151	0.296			
Nc1ncccc1-c1nc2ccc(-n3cccn3)nc2n1-c1ccc2c(c1)CC[C@@H]2NC1COC1 [Compound 111]		0.178	4.5			

The remaining lines, values ahead:

IC50 (AKT1 E17K; [1]) [µM]	IC50 (AKT1 WT; [1]) [µM]	IC50 (AKT2; [1]) [µM]	IC50 (AKT1 E17K; [2]) [µM]	IC50 (AKT1 WT; [2]) [µM]	IC50 (AKT2; [2]) [µM]	SMILES
			0.022	0.00456	0.0237	N#Cc1nc(N2CCC(N[C@H]3CCc4cc(-n5c(-c6cccnc6N)nc6ccc(-n7cccn7)nc65)ccc43)CC2)cs1 [Compound 593]
			0.0118	0.0061	0.0625	Cc1cc(N2CCC(N[C@H]3CCc4cc(-n5c(-c6cccnc6N)nc6ccc(-n7cccn7)nc65)ccc43)CC2)nc(C#N)n1 [Cpd 584, (S)-4-(4-((5-(2-(2-aminopyridin-3-yl)-5-(1H-pyrazol-1-yl)-3H-imidazo[4,5-b]pyridin-3-yl)-2,3-dihydro-1H-inden-1-yl)amino)piperidin-1-yl)-6-methylpyrimidine-2-carbonitrile]
			0.00823	0.00477	0.0107	Cc1cnc(C#N)nc1N1CCC(N[C@H]2CCc3cc(-n4c(-c5cccnc5N)nc5ccc(-n6cccn6)nc54)ccc32)CC1 [Compound 585]
				0.339	9.26	CS(=O)(=O)c1ccn(-c2ccc3nc(-c4cccnc4N)n(-c4ccc5c(c4)CC[C@@H]5NC4CCN(C(=O)C5CC5)CC4)c3n2)n1 [Compound 554]
				0.134	2.09	Nc1ncccc1-c1nc2ccc(-n3cccn3)nc2n1-c1ccc2c(c1)CC[C@@H]2NC1CCCc2ccncc21 (stereo partly drawn) [Compound 502]
				0.0217	1.47	Nc1ncccc1-c1nc2ccc(-n3nccn3)nc2n1-c1ccc2c(c1)CC[C@@H]2NC(=O)c1ccns1 [Compound 413]
				0.00511	0.43	Cc1nc(C2CC2)ccc1C(=O)N[C@H]1CCc2cc(-n3c(-c4cccnc4N)nc4ccc(-n5nccn5)nc43)ccc21 [Compound 539]
				0.117	2.33	CC(C)C(=O)N1CCC(N[C@@H]2c3ccc(-n4c(-c5cccnc5N)nc5ccc(-n6cccn6)nc54)cc3CC2F)CC1 (stereo partly drawn) [Compound 542]
				0.00352	0.0379	Nc1ncccc1-c1nc2ccc(-c3ccn(C(F)F)n3)nc2n1-c1ccc2c(c1)CC[C@@H]2NC(=O)c1ccc(C(F)(F)F)nc1 [Compound 421]
				0.00564	0.057	COc1cc(C(=O)N[C@H]2CCc3cc(-n4c(-c5cccnc5N)nc5ccc(-n6cccn6)nc54)ccc32)sn1 [Compound 429]
	0.0191	0.0413				Nc1ncccc1-c1nc2ccc(-n3cccn3)nc2n1-c1ccc2c(c1)CC[C@@H]2NC(=O)c1cc(F)cc(F)c1 [Compound 331]
	0.0221	0.351				Nc1ncccc1-c1nc2ccc(-n3cccn3)nc2n1-c1ccc2c(c1)CC[C@@H]2NC(=O)c1ccc(F)cc1 [Compound 310]
				0.976	> 10	CN1CC(C#Cc2ccc3nc(-c4cccnc4N)n(-c4ccc5c(c4)CC[C@@H]5NC(=O)c4ccc(C(F)F)nc4)c3n2)C1 [Compound 411, (S)—N-(5-(2-(2-aminopyridin-3-yl)-5-((1-methylazetidin-3-yl)ethynyl)-3H-imidazo[4,5-b]pyridin-3-yl)-2,3-dihydro-1H-inden-1-yl)-6-(difluoromethyl)nicotinamide]
				0.805	3.78	C#Cc1cc(-n2nccn2)nc2c1nc(-c1cccnc1N)n2-c1ccc2c(c1)CC[C@@H]2NC(=O)c1ccc(C(F)F)nc1 [Compound 583]
				0.00277	0.0153	Nc1ncccc1-c1nc2ccc(-n3ccc(OC(F)F)n3)nc2n1-c1ccc2c(c1)CC[C@@H]2NC(=O)c1ccc(C2CC2)nc1 [Compound 537]
	0.0177	0.305				COc1cc(C(=O)N[C@H]2CCc3cc(-n4c(-c5cccnc5N)nc5ccc(-n6cccn6)nc54)ccc32)ccc1F [Compound 336]
				0.00624	0.13	Nc1ncccc1-c1nc2ccc(-n3ccc(N4CCOCC4)n3)nc2n1-c1ccc2c(c1)CC(F)[C@@H]2NC1CCN(C(=O)C2CC2)CC1 (stereo partly drawn) [Compound 544]
				0.036	1.29	COCC#Cc1ccc2nc(-c3cccnc3N)n(-c3ccc4c(c3)CC[C@@H]4NC(=O)c3ccc(C(F)F)nc3)c2n1 [Compound 409]
				0.0167	0.9	Cc1ccc(C(=O)N[C@H]2CCc3cc(-n4c(-c5ccccc5)nc5ccc(-c6ccn(C7CC7)n6)nc54)ccc32)cn1 [Compound 431, (S)—N-(5-(5-(1-cyclopropyl-1H-pyrazol-3-yl)-2-phenyl-3H-imidazo[4,5-b]pyridin-3-yl)-2,3-dihydro-1H-inden-1-yl)-6-methylnicotinamide]
				0.0178	1.09	Cc1cnc2ccc(C(=O)N[C@H]3CCc4cc(-n5c(-c6cccnc6N)nc6ccc(-n7nccn7)nc65)ccc43)cn12 [Compound 398]
				0.00642	0.0421	Cc1ccc(C(=O)N[C@H]2CCc3cc(-n4c(-c5cccnc5N)nc5ccc(-n6ccc(OC(F)F)n6)nc54)ccc32)cn1 [Compound 535]
	0.0231	0.502				COc1cc(C(=O)N[C@H]2CCc3cc(-n4c(-c5cccnc5N)nc5ccc(-n6cccn6)nc54)ccc32)nn1C(F)F [Compound 324]
	0.0398	0.9				Nc1ncccc1-c1nc2ccc(-n3cccn3)nc2n1-c1ccc2c(c1)CC[C@@H]2n1cc(C2CCO2)nn1 (stereo partly drawn) [Compound 354]
